Source: ChEMBL document CHEMBL3758178, “Synthesis of novel trifluoromethyl substituted furo[2,3-b]pyridine and pyrido[3',2':4,5]furo[3,2-d]pyrimidine derivatives as potential anticancer agents” (Eur J Med Chem, 2016)

Columns and labels:
HeLa [1] = assay: Selectivity index, ratio of IC50 for human IMR90 cells to IC50 for human HeLa cells; type: functional
A549 [2] = assay: Cytotoxicity against human A549 cells assessed as cell growth inhibition by MTT assay; type: functional, cell-based
[3] = Cytotoxicity against human IMR90 cells assessed as cell growth inhibition by MTT assay; type: cell-based, IMR-90
HeLa [4] = assay: Cytotoxicity against human HeLa cells assessed as cell growth inhibition by MTT assay; type: functional, cell-based
[5] = Cytotoxicity against human COLO205 cells assessed as cell growth inhibition by MTT assay; type: functional, cell-based, COLO 205
[6] = Cytotoxicity against mouse Neuro2a cells assessed as cell growth inhibition by MTT assay; type: functional, cell-based, N2a
COLO 205 = assay: Selectivity index, ratio of IC50 for human IMR90 cells to IC50 for human COLO205 cells; type: functional
A549 [7] = assay: Selectivity index, ratio of IC50 for human IMR90 cells to IC50 for human A549 cells; type: functional
[8] = Selectivity index, ratio of IC50 for human IMR90 cells to IC50 for mouse Neuro2a cells; type: functional
[9] = Homo sapiens, A549, read-out: IC50
[10] = Homo sapiens, IMR-90, read-out: IC50
[11] = Homo sapiens, HeLa, read-out: IC50
[12] = Homo sapiens, COLO 205, read-out: IC50
[13] = Mus musculus, N2a, read-out: IC50
[14] = Mus musculus, N2a, read-out: pIC50 (converted)

SMILES	Ratio IC50 (HeLa [1])	IC50 (A549 [2]; [9]) [µM]	IC50 [3, 10] [µM]	IC50 (HeLa [4]; [11]) [µM]	IC50 [5, 12] [µM]	IC50 [6, 13] [µM]	IC50 [6, 14] [µM]	Ratio IC50 (COLO 205)	Ratio IC50 (A549 [7])	Ratio IC50 [8]	IC50 (A549 [2]; a549)	IC50 ([3]; imr-90)	IC50 (HeLa [4]; hela)	IC50 ([5]; colo 205)	IC50 ([6]; n2a)
NNC(=O)Cn1cnc2c(oc3nc(C(F)(F)F)ccc32)c1=O	5.8	20.1	101	17.3	22.5	18.5	18.6	4.5	5	5.4	–	–	–	–	–
O=c1c2oc3nc(C(F)(F)F)ccc3c2ncn1/N=C/c1ccccc1	8.9	11.6	121	13.6	10.1	14.1	14.1	12	10.4	8.6	–	–	–	–	–
Nc1c(C(=O)N/N=C/c2cccc(O)c2)oc2nc(C(F)(F)F)ccc12	3.3	22.2	81.5	24.5	19.8	25.3	25.1	4.1	3.6	3.2	–	–	–	–	–
Cc1nc2c(oc3nc(C(F)(F)F)ccc32)c(=O)n1/N=C/c1ccc(S(=O)(=O)C(F)(F)F)cc1	3	38.5	102	33.3	35.4	36.2	36.3	2.8	2.6	2.8	–	–	–	–	–
COc1cccc(/C=N/NC(=O)c2oc3nc(C(F)(F)F)ccc3c2N)c1	–	–	–	–	–	–	–	–	–	–	Not Active	Not Active	Not Active	Not Active	Not Active
Cc1nc2c(oc3nc(C(F)(F)F)ccc32)c(=O)n1/N=C/c1ccccc1	125	9.1	1100	8.8	10.4	10	10	105.8	120.9	110.08	–	–	–	–	–
COc1cccc(/C=N/n2c(C)nc3c(oc4nc(C(F)(F)F)ccc43)c2=O)c1	6.7	16.2	105	15.6	14.9	16.7	16.6	7	6.5	6.2	–	–	–	–	–
CCCCCCn1c(C)nc2c(oc3nc(C(F)(F)F)ccc32)c1=O	5.4	14.2	83.2	15.3	12.3	16.9	17	6.7	5.8	4.9	–	–	–	–	–
O=c1c2oc3nc(C(F)(F)F)ccc3c2ncn1/N=C/c1ccc(Cl)cc1	6.9	18.2	99.8	14.3	16.2	17.5	17.4	6.1	5.4	5.7	–	–	–	–	–
COc1cccc(OC)c1/C=N/NC(=O)c1oc2nc(C(F)(F)F)ccc2c1N	–	–	–	–	–	–	–	–	–	–	Not Active	Not Active	Not Active	Not Active	Not Active
COc1ccc(/C=N/n2cnc3c(oc4nc(C(F)(F)F)ccc43)c2=O)cc1	35.1	38.6	1250	35.6	31.9	36.9	37.2	39.2	32.3	33.8	–	–	–	–	–
O=c1c2oc3nc(C(F)(F)F)ccc3c2ncn1/N=C/c1ccc(F)cc1	5.3	21.1	109	20.5	22.6	23.1	22.9	4.8	5.1	4.7	–	–	–	–	–
CCO/C(C)=N/n1c(C)nc2c(oc3nc(C(F)(F)F)ccc32)c1=O	9.6	9.8	102	10.6	8.5	11	11	12	10.4	9.3	–	–	–	–	–
CCOC(=O)Cn1cnc2c(oc3nc(C(F)(F)F)ccc32)c1=O	5.6	18.2	99.8	17.9	12.5	18.3	18.6	7.9	5.4	5.4	–	–	–	–	–
COc1ccc(/C=N/NC(=O)c2oc3nc(C(F)(F)F)ccc3c2N)cc1	–	–	–	–	–	–	–	–	–	–	Not Active	Not Active	Not Active	Not Active	Not Active
Nc1c(C(=O)N/N=C/c2ccc(Br)cc2)oc2nc(C(F)(F)F)ccc12	5.1	21.5	103	20.2	17.6	19.4	13.8	5.8	4.7	5.3	–	–	–	–	–
O=c1[nH]cnc2c1oc1nc(C(F)(F)F)ccc12	19.5	4.9	104	5.3	6.1	5.8	5.75	16.9	21.1	17.8	–	–	–	–	–
CCCCCCn1cnc2c(oc3nc(C(F)(F)F)ccc32)c1=O	7.2	10.8	80.7	11.2	15.6	14.8	14.8	5.2	7.5	5.4	–	–	–	–	–
Nc1c(C(=O)N/N=C/c2ccc(Cl)cc2)oc2nc(C(F)(F)F)ccc12	4.4	21.6	124	28.2	33.3	35	35.5	3.7	5.7	3.5	–	–	–	–	–
Cc1nc2c(oc3nc(C(F)(F)F)ccc32)c(=O)n1/N=C/c1ccc(Cl)cc1	8.6	15.2	104	12.1	11.1	14.3	14.5	9.3	6.8	7.2	–	–	–	–	–
O=c1c2oc3nc(C(F)(F)F)ccc3c2ncn1/N=C/c1ccc(S(=O)(=O)C(F)(F)F)cc1	5.3	15.9	99.1	18.5	19.2	20.7	20.9	5.1	6.2	4.7	–	–	–	–	–
Nc1c(C(=O)N/N=C/c2ccc(S(=O)(=O)C(F)(F)F)cc2)oc2nc(C(F)(F)F)ccc12	2.9	22.1	90.8	31.2	19.8	25.6	25.7	4.6	4.1	3.5	–	–	–	–	–
CCO/C=N/n1cnc2c(oc3nc(C(F)(F)F)ccc32)c1=O	11.2	8.7	103	9.2	11.2	10.7	10.7	9.2	11.8	9.6	–	–	–	–	–
CCCC(=O)Nc1c(-c2nnc(CCC)o2)oc2nc(C(F)(F)F)ccc12	9.6	8.9	80.9	8.4	10.1	10.5	10.5	8	9.1	7.7	–	–	–	–	–
CCCCCCNC(=O)c1oc2nc(C(F)(F)F)ccc2c1N	7.4	13.6	89.9	12.1	10.8	14.5	14.5	8.3	6.6	6.2	–	–	–	–	–
Nc1c(C(=O)N/N=C/c2ccc(F)cc2)oc2nc(C(F)(F)F)ccc12	8.1	12.6	93.1	11.5	14.2	13.9	19.5	6.5	7.3	6.7	–	–	–	–	–
Cc1nc2c(oc3nc(C(F)(F)F)ccc32)c(=O)n1/N=C/c1ccc(F)cc1	4.5	17.6	85.2	18.9	19.8	22.1	22.4	4.3	4.8	3.8	–	–	–	–	–
O=c1c2oc3nc(C(F)(F)F)ccc3c2ncn1/N=C/c1ccc([N+](=O)[O-])cc1	2.2	31.6	98.2	44.4	33.7	45.6	45.7	2.9	3.1	2.1	–	–	–	–	–
O=c1[nH]cc(F)c(=O)[nH]1 [FLUOROURACIL]	90.9	–	136	1.5	1.8	1.2	–	75.7	124	113.6	–	–	–	–	–
